Toxic doses and inconclusive results are not listed. Cut-off read from the data, not from the text of the source: active = T/C of 150% or more; inactive = T/C below 125%.
Test system: L1210 leukemia ip in BDF1 mice, survival T/C
Assay: NCI In Vivo Anticancer Drug Screen. Data for tumor model L1210 Leukemia (intraperitoneal) in B6D2F1 (BDF1) mice
Conditions: endpoint: mean survival time, higher = longer survival
Outline: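 Transplanted-tumor mice were given test agent; controls received vehicle only. Survival readings from the two groups were divided (treated over control).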

[1] = dose: 100.0 mg/kg/injection, schedule: Q04DX002 (ip), vehicle: saline with Tween-80
[2] = dose: 200.0 mg/kg/injection, schedule: Q04DX002 (ip), vehicle: saline with Tween-80
[3] = dose: 400.0 mg/kg/injection, schedule: Q04DX002 (ip), vehicle: saline with Tween-80
[4] = dose: 25.0 mg/kg/injection, schedule: Q01DX009 (ip), vehicle: water
[5] = dose: 50.0 mg/kg/injection, schedule: Q01DX009 (ip), vehicle: water
[6] = dose: 100.0 mg/kg/injection, schedule: Q01DX009 (ip), vehicle: water
[7] = dose: 200.0 mg/kg/injection, schedule: Q01DX009 (ip), vehicle: water
[8] = dose: 400.0 mg/kg/injection, schedule: Q01DX009 (ip), vehicle: water
[9] = dose: 100.0 mg/kg/injection, schedule: Q01DX001 (ip), vehicle: saline
[10] = dose: 200.0 mg/kg/injection, schedule: Q01DX001 (ip), vehicle: saline
[11] = dose: 400.0 mg/kg/injection, schedule: Q01DX001 (ip), vehicle: saline

Measured: T/C

O=[N+]([O-])c1cccc(O)c1
inactive: dose: 50.0 mg/kg/injection, schedule: Q01DX009 (ip), vehicle: saline 99 % of control | dose: 100.0 mg/kg/injection, schedule: Q01DX009 (ip), vehicle: saline 92 % of control | dose: 100.0 mg/kg/injection, schedule: Q04DX003 (ip), vehicle: other 106 % of control | dose: 200.0 mg/kg/injection, schedule: Q01DX009 (ip), vehicle: saline 115 % of control | dose: 200.0 mg/kg/injection, schedule: Q04DX003 (ip), vehicle: other 112 % of control

C=CS(=O)(=O)CCc1ccccc1
inactive: [1] 115 % of control | [2] 102 % of control | [3] 91 % of control

O=C(C(=O)c1ccccc1)c1ccccc1
inactive: [4] 102 % of control | [5] 96 % of control | [6] 102 % of control | dose: 100.0 mg/kg/injection, schedule: Q04DX003 (ip), vehicle: saline with Tween-80 101 % of control | [7] 107 % of control | dose: 200.0 mg/kg/injection, schedule: Q04DX003 (ip), vehicle: saline with Tween-80 97 % of control | [8] 98 % of control | dose: 400.0 mg/kg/injection, schedule: Q04DX003 (ip), vehicle: saline with Tween-80 101 % of control

CN(C)CCC(C(=O)c1ccccc1)c1ccccn1 (stereo not drawn)
inactive: dose: 55.0 mg/kg/injection, schedule: Q01DX Z (ip), vehicle: saline 100 % of control | dose: 83.0 mg/kg/injection, schedule: Q01DX Z (ip), vehicle: saline 107 % of control | dose: 125.0 mg/kg/injection, schedule: Q01DX Z (ip), vehicle: saline 96 % of control

CCC(=O)CC(C)(C)C
inactive: [9] 92 % of control | [10] 97 % of control | [11] 100 % of control

Cc1ccc(C(C)C)c(OC(=O)Nc2ccc(S(=O)(=O)N(C)C)cc2)c1
inactive: [9] 103 % of control | [10] 100 % of control | [11] 101 % of control

COc1cc(OC)c(C(=O)c2ccccc2[N+](=O)[O-])c(OC)c1
inactive: dose: 100.0 mg/kg/injection, schedule: Q01DX009 (ip), vehicle: saline with Tween-80 91 % of control | dose: 100.0 mg/kg/injection, schedule: Q04DX003 (ip), vehicle: saline 99 % of control | dose: 200.0 mg/kg/injection, schedule: Q01DX009 (ip), vehicle: saline with Tween-80 92 % of control | dose: 200.0 mg/kg/injection, schedule: Q04DX003 (ip), vehicle: saline 99 % of control | dose: 400.0 mg/kg/injection, schedule: Q01DX009 (ip), vehicle: saline with Tween-80 96 % of control | dose: 400.0 mg/kg/injection, schedule: Q04DX003 (ip), vehicle: saline 100 % of control

NC(=O)c1cc([N+](=O)[O-])ccc1N
inactive: dose: 100.0 mg/kg/injection, schedule: Q01DX001 (ip), vehicle: other 103 % of control | dose: 100.0 mg/kg/injection, schedule: Q04DX003 (ip), vehicle: saline sonified 103 % of control | dose: 200.0 mg/kg/injection, schedule: Q01DX001 (ip), vehicle: other 112 % of control | dose: 200.0 mg/kg/injection, schedule: Q04DX003 (ip), vehicle: saline sonified 105 % of control | dose: 400.0 mg/kg/injection, schedule: Q01DX001 (ip), vehicle: other 95 % of control | dose: 400.0 mg/kg/injection, schedule: Q04DX003 (ip), vehicle: saline sonified 111 % of control

C/C(=C\C(C)(C)C(C)(C)C)C(C)(C)C
inactive: dose: 50.0 mg/kg/injection, schedule: Q04DX002 (ip), vehicle: saline with Tween-80 100 % of control | [1] 95 % of control | [2] 92 % of control | [3] 92 % of control

C=C1C(=O)OC2CC3(C)C(OC(C)=O)CC=C(C)C3C(OC(C)=O)C12 (stereo not drawn) (tested in a mixture with another compound)
inactive: dose: 75.0 mg/kg/injection, schedule: Q01DX001 (ip), vehicle: saline 96 % of control | dose: 150.0 mg/kg/injection, schedule: Q01DX001 (ip), vehicle: saline 100 % of control

COC1=C(O)C(C(O)CO)OC1=O (stereo not drawn)
inactive: [4] 103 % of control | [5] 110 % of control | [6] 117 % of control | [7] 101 % of control | [8] 108 % of control

CC(=O)O[C@H]1CC[C@@]2(C)C(=CC[C@H]3[C@@H]4CC[C@H](O)[C@@]4(C)CC[C@@H]32)C1
inactive: dose: 100.0 mg/kg/injection, schedule: Q04DX003 (ip), vehicle: Klucel (hydroxypropylcellulose) (HPC) 103 % of control | dose: 200.0 mg/kg/injection, schedule: Q04DX003 (ip), vehicle: Klucel (hydroxypropylcellulose) (HPC) 103 % of control | dose: 400.0 mg/kg/injection, schedule: Q04DX003 (ip), vehicle: Klucel (hydroxypropylcellulose) (HPC) 96 % of control

CC/C(C)=N/NS(C)(=O)=O
inactive: dose: 75.0 mg/kg/injection, schedule: Q01DX001 (ip), vehicle: other 103 % of control | dose: 150.0 mg/kg/injection, schedule: Q01DX001 (ip), vehicle: other 97 % of control

Reference: PubChem BioAssay AID248 (DTP/NCI, 2004)
